# Reference: ChEMBL document CHEMBL1201862, “PubChem BioAssay data set” (2004)
# The source made the active and inactive calls.
# Columns and labels:
# [1] = biological target: Paired box protein Pax-8 (Homo sapiens, UniProt Q06710); assay: inhibitors of PAX8-driven TPO luciferase reporter, dose response, RMG-I cells, cherry-pick (AID 687027); assay type: functional, cell-based;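 note: luciferase reporter driven by Pax8 target thyroperoxidase promoter measured by SteadyGlo luminescence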
# [2] = IOSE-T80 ovarian epithelial cell cytotoxicity, dose response, cytotoxicity control for PAX8 inhibitor project, plate reader, dry powder samples (AID 743045); assay type: functional, cell-based
# [3] = cytotoxicity in OVCAR8 ovarian cancer cells, dose response, PAX8 project, cell-based, plate reader, dry powder samples (AID 743197); assay type: functional; details: OVCAR-8
# [4] = NIH:OVCAR-3 ovarian cancer cell cytotoxicity, dose response, PAX8 inhibitor project, plate reader, dry powder samples (AID 743044); assay type: functional, cell-based
# [5] = Luminescence Cell-Based Dose Response HTS to Identify Activators of Luciferase Translation or Activity in H4 […] Cells. [Related pubchem assays: 1829 (Project Summary), 1814 (Primary HTS)]; assay type: functional
# [6] = HepG2 cell cytotoxicity, dose response, cytotoxicity control, ATP luminescence, cherry-pick, activator set 2 (AID 1053143); assay type: functional, cell-based
# [7] = tested on: H4; assay: Luminescence Cell-Based Dose Response HTS to Identify Activators of 5'UTR Stem-Loop Driven Prion Protein mRNA Translation in H4 Neuroglioblastoma Cells. [Related pubchem assays: 1829 (Project Summary), 1814 (Primary HTS)]; assay type: functional; details: Homo sapiens
# [8] = biological target: T1, Protein skinhead-1 (Caenorhabditis elegans, UniProt P34707); assay type: functional
# T1 sequence (P34707 whole entry): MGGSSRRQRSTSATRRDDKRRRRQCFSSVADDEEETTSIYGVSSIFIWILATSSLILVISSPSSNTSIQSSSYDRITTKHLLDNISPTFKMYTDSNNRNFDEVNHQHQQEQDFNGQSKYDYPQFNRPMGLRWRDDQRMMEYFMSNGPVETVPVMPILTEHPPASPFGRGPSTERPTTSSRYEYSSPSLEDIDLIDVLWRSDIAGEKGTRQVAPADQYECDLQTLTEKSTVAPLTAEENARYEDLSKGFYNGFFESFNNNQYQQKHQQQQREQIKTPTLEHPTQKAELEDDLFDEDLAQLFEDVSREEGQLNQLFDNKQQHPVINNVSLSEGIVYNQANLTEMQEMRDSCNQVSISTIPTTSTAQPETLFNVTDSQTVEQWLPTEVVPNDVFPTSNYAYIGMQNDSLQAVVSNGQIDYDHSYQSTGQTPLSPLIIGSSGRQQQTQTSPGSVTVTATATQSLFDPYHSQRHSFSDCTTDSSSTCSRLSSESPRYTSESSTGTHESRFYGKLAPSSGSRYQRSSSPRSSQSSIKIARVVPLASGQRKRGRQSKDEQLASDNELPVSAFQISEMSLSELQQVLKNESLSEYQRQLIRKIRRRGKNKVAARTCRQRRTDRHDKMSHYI
# [9] = cells; assay type: functional, cell-based
# [10] = cells; assay type: functional, cell-based; remark: listed apart in the source
# [11] = reduction of Shn3 3'UTR firefly luciferase signal, dose response, Schnurri-3 inhibitor project, cell-based, Clone20 osteoblasts, cherry-pick, set 2 (AID 720490); assay type: functional;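 note: actives lower the luminescence signal as inhibitors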
# [12] = tested on: Jurkat; assay: antigen receptor-induced NF-kB inhibitors, dose response, Jurkat, luciferase reporter, luminescence, B- and T-cell (AID 489004); assay type: functional, cell-based; details: Homo sapiens;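 note: NF-kB luciferase reporter Jurkat cells stimulated with PMA plus ionomycin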
# [13] = cytotoxicity in HEK-293T NF-kB-Luc cells, dose response, cytotoxicity control for B/T-cell NF-kB inhibitor project, cell-based, uHTS hits (AID 489019); assay type: functional;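 note: IC50 reflects cytotoxicity as loss of cell viability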
# [14] = Shn3 3'UTR reporter inhibitors, dose response, cell-based, Clone20 osteoblasts, firefly luciferase, cherry-picked (AID 624132); assay type: functional;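 note: firefly luciferase luminescence from reporter carrying the Shn3 3'UTR in osteoblasts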
# [15] = tested on: Escherichia coli; assay: microbe, parasite or virus in culture
# [16] = biological target: Potassium channel subfamily K member 3 (Homo sapiens, UniProt O14649); assay: TASK1 (KCNK3) potassium channel inhibitors, SAR follow-up, CHO cells, FluxOR thallium flux (AID 652212); assay type: functional
# Potassium channel subfamily K member 3, sequence (O14649 whole entry): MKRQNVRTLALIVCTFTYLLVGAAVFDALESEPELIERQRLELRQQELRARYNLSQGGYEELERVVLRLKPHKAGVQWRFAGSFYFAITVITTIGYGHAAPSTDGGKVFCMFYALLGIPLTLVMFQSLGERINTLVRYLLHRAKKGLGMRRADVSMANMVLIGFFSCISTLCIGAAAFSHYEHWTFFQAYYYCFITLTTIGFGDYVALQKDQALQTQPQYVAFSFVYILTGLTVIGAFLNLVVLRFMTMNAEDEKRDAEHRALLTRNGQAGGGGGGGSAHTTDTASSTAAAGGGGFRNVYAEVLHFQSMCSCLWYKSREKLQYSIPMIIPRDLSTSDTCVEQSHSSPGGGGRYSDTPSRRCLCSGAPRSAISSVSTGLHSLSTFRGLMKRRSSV
# [17] = biological target: Luciferin 4-monooxygenase (Photinus pyralis, UniProt P08659); assay: firefly luciferase enzyme inhibitors, dose response, biochemical, luminescence (AID 1891)
# Luciferin 4-monooxygenase, sequence (P08659 whole entry): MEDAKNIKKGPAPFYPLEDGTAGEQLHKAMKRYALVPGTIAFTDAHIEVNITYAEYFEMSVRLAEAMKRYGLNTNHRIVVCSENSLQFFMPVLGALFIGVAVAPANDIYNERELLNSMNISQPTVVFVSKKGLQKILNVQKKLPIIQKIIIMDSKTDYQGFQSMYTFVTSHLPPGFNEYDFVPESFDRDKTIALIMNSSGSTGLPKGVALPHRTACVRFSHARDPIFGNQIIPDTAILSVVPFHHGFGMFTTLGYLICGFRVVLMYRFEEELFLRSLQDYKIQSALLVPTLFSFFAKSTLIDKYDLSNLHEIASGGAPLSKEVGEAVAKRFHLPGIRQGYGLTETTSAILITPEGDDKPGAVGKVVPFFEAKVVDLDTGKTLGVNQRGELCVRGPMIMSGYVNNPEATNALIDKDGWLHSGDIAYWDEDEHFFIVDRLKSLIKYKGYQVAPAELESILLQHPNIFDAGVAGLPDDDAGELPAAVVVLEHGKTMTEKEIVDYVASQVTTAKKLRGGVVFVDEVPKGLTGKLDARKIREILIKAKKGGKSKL
# [18] = Luminescence Cell-Based Dose Confirmation HTS to Identify Inhibitors of Platelet Dense Granule Release. [Related pubchem assays: 1663 (Primary HTS), 1678 (Summary of Project)]; assay type: functional
# [19] = tested on: HEK293; assay: inhibitors of LMP1-driven NF-kB reporter, dose response, cell-based, HEK293, luciferase, cherry-pick (AID 588343); assay type: functional; details: Homo sapiens
# [20] = biological target: T2, Nuclear receptor subfamily 0 group B member 1 (Homo sapiens, UniProt P51843); assay type: functional, cell-based;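 note: HEK293T cells transfected with SF-1 and DAX-1 plus StAR promoter luciferase reporter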
# T2 sequence (P51843 whole entry): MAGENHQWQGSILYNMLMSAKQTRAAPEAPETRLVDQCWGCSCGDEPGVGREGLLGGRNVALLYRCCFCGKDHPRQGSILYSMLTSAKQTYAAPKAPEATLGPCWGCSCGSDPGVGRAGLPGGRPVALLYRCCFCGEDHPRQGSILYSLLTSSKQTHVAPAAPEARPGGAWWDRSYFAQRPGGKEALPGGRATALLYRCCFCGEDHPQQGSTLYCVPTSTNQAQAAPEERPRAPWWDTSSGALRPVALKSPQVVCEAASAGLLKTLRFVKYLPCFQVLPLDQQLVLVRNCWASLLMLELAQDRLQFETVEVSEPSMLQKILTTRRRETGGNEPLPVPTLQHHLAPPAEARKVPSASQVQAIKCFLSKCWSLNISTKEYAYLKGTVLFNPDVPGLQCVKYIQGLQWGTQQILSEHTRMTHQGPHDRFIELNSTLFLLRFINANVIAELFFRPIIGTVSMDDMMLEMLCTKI
# [21] = cells; assay type: functional, cell-based; remark: listed apart in the source
# [22] = biological target: T3, Zinc finger protein mex-5 (Caenorhabditis elegans, UniProt Q9XUB2); assay: MEX-5/TCR-2 RNA interaction inhibitors, dose response, biochemical, C. elegans, fluorescence polarization (AID 1960)
# T3 sequence (Q9XUB2 whole entry): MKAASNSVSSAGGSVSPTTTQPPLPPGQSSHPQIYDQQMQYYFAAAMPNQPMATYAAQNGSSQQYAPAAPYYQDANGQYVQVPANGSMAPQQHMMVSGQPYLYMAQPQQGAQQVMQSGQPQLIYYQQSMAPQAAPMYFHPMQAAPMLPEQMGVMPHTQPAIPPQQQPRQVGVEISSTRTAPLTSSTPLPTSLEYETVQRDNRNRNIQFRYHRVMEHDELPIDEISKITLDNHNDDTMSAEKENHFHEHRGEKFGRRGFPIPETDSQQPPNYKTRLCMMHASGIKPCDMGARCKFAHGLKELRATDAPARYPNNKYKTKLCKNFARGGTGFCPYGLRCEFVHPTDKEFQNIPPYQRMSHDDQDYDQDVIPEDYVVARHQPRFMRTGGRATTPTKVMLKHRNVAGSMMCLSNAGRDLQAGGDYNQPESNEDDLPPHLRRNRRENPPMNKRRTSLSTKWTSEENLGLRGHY
# [23] = biological target: 1-phosphatidylinositol 4,5-bisphosphate phosphodiesterase gamma-1 (Homo sapiens, UniProt P19174); assay: Counterscreen for inhibitors of phospholipase C isozymes (PLC-B3): Fluorescence-based biochemical high throughput dose response assay to identify inhibitors of phospholipase C isozymes (PLC-gamma1).
# 1-phosphatidylinositol 4,5-bisphosphate phosphodiesterase gamma-1, sequence (P19174 whole entry): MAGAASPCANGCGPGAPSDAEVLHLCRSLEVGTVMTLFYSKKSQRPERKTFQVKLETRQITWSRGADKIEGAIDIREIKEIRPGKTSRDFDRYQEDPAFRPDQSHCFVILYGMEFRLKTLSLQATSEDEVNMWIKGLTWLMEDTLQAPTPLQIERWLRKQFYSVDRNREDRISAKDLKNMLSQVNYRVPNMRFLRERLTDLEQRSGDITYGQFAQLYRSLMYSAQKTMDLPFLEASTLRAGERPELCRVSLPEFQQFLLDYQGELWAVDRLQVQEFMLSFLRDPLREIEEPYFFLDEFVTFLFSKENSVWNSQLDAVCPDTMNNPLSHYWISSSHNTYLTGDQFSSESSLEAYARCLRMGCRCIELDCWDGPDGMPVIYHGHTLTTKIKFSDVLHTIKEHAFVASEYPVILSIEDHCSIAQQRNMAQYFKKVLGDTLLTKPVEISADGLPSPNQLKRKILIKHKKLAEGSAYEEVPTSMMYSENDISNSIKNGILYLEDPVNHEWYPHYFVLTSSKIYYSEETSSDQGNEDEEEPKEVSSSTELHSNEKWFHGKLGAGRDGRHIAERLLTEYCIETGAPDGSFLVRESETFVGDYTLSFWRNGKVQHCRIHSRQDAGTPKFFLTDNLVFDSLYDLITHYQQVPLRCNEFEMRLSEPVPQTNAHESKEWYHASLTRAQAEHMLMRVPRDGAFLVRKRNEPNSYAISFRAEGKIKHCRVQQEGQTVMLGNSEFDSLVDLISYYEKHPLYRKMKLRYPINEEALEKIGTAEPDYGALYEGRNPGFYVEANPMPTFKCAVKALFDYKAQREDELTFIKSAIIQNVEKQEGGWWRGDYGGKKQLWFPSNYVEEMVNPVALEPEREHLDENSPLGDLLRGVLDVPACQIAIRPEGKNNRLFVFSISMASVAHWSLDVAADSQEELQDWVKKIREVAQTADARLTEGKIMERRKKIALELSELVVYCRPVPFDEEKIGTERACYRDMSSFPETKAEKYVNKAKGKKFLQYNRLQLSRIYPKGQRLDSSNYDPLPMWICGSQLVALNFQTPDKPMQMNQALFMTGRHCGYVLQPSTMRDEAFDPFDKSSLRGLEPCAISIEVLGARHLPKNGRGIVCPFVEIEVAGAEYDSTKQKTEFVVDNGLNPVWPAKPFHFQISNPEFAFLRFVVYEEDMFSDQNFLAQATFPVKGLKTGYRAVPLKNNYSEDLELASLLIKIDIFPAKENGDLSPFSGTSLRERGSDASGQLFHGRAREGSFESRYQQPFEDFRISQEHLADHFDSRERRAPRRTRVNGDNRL
# [24] = biological target: 1-phosphatidylinositol 4,5-bisphosphate phosphodiesterase beta-3 (Homo sapiens, UniProt Q01970); assay: Fluorescence-based biochemical high throughput dose response assay to identify inhibitors of phospholipase C isozymes (PLC-B3).
# 1-phosphatidylinositol 4,5-bisphosphate phosphodiesterase beta-3, sequence (Q01970 whole entry, the tested form may be a part): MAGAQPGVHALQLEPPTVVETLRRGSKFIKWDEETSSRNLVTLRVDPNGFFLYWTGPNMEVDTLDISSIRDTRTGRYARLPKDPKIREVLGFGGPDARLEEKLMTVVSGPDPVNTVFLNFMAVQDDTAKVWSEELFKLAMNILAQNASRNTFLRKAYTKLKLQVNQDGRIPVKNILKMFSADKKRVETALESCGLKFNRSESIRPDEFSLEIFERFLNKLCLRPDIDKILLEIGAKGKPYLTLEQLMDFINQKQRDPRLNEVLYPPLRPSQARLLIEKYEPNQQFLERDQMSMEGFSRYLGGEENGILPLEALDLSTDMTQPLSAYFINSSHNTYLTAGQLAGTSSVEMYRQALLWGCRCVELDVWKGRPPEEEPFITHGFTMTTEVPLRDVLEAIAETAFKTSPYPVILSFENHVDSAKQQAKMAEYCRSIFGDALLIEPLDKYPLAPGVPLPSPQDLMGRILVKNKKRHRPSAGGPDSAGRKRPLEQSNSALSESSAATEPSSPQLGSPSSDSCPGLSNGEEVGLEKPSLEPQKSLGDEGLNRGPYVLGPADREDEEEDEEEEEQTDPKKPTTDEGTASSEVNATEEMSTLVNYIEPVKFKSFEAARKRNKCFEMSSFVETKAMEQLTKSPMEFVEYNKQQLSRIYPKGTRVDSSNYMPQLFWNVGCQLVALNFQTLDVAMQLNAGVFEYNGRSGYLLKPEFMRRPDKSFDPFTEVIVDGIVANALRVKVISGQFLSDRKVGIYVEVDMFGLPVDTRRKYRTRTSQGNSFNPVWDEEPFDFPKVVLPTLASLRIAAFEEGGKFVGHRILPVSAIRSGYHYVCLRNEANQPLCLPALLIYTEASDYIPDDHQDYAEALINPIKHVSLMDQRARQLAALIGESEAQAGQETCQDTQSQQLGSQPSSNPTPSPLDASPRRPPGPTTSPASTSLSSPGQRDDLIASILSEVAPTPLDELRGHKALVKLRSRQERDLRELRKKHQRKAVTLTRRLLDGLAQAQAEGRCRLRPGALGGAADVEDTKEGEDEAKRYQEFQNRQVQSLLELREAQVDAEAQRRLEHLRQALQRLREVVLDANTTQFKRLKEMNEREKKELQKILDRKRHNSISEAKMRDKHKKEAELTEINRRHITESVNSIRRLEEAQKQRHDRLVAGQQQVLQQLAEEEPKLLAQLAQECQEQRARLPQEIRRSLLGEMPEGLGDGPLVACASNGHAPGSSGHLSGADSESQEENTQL
# [25] = biological target: T4, RNA-binding protein pos-1 (Caenorhabditis elegans, UniProt G5EF15); assay: inhibitors of POS-1/mex-3 RNA binding, dose response, biochemical, fluorescence polarization (AID 1964);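 note: purified POS-1 fused to maltose binding protein made in E. coli; potency of compounds blocking POS-1 binding to fluorescent RNA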
# T4 sequence (G5EF15 whole entry): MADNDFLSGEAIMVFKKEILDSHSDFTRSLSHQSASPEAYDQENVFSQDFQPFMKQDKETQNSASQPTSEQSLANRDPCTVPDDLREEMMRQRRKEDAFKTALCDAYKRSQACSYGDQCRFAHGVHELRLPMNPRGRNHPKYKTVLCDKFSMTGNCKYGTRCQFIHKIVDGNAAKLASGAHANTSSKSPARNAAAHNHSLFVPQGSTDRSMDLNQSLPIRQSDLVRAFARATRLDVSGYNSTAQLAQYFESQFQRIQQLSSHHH
# Paired box protein Pax-8, sequence (Q06710 whole entry): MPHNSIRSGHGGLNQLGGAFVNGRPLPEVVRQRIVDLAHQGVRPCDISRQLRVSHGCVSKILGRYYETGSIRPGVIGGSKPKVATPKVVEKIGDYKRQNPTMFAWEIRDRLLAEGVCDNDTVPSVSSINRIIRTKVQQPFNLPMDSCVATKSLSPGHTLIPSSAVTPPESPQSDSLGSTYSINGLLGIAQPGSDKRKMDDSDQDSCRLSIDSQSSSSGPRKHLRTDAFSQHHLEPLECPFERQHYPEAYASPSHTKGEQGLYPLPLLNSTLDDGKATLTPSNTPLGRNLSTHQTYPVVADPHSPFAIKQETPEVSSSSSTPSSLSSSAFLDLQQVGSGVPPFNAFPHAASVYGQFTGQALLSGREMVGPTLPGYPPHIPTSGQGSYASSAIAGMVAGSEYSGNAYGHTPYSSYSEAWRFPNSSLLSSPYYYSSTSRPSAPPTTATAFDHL
smiles,measurement,setting,value
COc1ccc(S(=O)(=O)Nc2ccc3c(c2)C(=O)N([C@@H](C)CO)C[C@@H](C)[C@@H](CN(C)Cc2ccc(C(F)(F)F)cc2)OCCCC[C@@H](C)O3)cc1,AC50,[1],6.1 µM (active)
same,AC50,[2],24 µM (active)
same,AC50,[3],22.5 µM (active)
same,AC50,[4],23.1 µM (active)
O=C(NC1CCCC1)c1cc(-c2ccccc2)on1,EC50,[5],0.355 µM (active)
same,AC50,[6],26 µM (active)
same,EC50,[7],3.13 µM (active)
same,IC50,[8],> 100 µM (inactive)
same,EC50,[9],330 µM (active)
same,EC50,[10],> 350 µM (not active)
CCn1c(C)cc(C(=O)COC(=O)c2ccccc2[N+](=O)[O-])c1C,AC50,[11],< 0.135 µM (active)
same,IC50,[12],< 0.16 µM (active)
same,IC50,[13],> 80 µM (inactive)
same,AC50,[14],< 0.26 µM (active)
O=C(Nc1cccc(NC(=O)c2ccco2)c1)c1ccccc1,AC50,[15],25 µM (active)
same,IC50,[16],0.036 µM (active)
Cc1ccnc(NC(=O)c2ccc(OCC3CCCO3)cc2)c1 (stereo unspecified),EC50,[17],7.94 µM (active)
same,EC50,[18],5.2 µM (active)
same,AC50,[6],26 µM (active)
same,AC50,[19],2.57 µM (active)
same,IC50,[20],> 67.5 µM (inactive)
same,IC50,[21],> 67.5 µM (inactive)
N#C/C(=C\c1cc(O)c(O)c(O)c1)C(N)=O,EC50,[22],> 150 µM (inconclusive)
same,IC50,[23],> 122 µM (inactive)
same,IC50,[24],> 122 µM (inactive)
same,EC50,[25],134 µM (active)
